{
  "source": "ChEMBL document CHEMBL1141398",
  "about": "“Metastin (KiSS-1) mimetics identified from peptide structure-activity relationship-derived pharmacophores and directed small molecule database screening” (J Med Chem, 2007)",
  "biological_target": "KiSS-1 receptor (Homo sapiens, UniProt Q969F8)",
  "sequence (Q969F8 whole entry)": "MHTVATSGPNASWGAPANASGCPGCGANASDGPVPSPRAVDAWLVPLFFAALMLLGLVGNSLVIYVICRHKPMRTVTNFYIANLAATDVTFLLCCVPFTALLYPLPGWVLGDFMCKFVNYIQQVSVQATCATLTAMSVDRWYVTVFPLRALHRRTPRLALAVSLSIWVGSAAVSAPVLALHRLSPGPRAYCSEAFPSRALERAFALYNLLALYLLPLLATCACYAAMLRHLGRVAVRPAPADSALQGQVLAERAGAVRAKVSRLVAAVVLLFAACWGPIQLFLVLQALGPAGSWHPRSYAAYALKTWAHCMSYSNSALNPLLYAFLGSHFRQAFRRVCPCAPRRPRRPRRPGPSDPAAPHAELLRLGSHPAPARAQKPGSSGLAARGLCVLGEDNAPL",
  "experiment": "Activity at metastin receptor expressed in HEK293 cells by measuring calcium release at 100 uM",
  "type": "functional, cell-based",
  "note": "Activity calls are given as the source filed them. The rule behind the calls is not given here.",
  "data": [
    {"compound": "CC(C)(C)CC(C)(C)c1ccc(OCCOCC[N+](C)(C)Cc2ccccc2)cc1", "note": "[BENZETHONIUM CHLORIDE]", "values": [
      {"measurement": "Activity", "value": "Active"}
    ]}
  ]
}
